Paper doi:10.1101/2023.10.01.560353v1 (bioRxiv, 2023)
In brackets after ≈: the same amount, converted by molar mass. Peptide text beside a SMILES is read from it.

Legend:
A. baumannii ATCC 19606 [1] = assay: MIC, broth microdilution; format: cell-based, Acinetobacter baumannii; details: broth microdilution in LB, 20 h at 37 °C, OD600; mean of three replicates
[2] = test system: 11 clinically relevant bacterial pathogens; assay: MIC over the panel of pathogens; format: cell-based; details: Table S17; lowest MIC over the strains tested
A. baumannii ATCC 19606 [3] = assay: Neutropenic thigh infection mouse model; format: in vivo, CD-1 mice; details: single intraperitoneal dose at MIC, n = 6

| Compound | Minimal Inhibitory Concentration: A. baumannii ATCC19606 (A. baumannii ATCC 19606 [1]) [µmol/L] | MIC (lowest MIC value obtained in the antimicrobial activity assays) [2] [mM] | reduction of the bacterial load four days post-treatment (A. baumannii ATCC 19606 [3]) | reduction of the bacterial load two days post-treatment (A. baumannii ATCC 19606 [3]) |
| --- | --- | --- | --- | --- |
| CC[C@H](C)[C@H](NC(=O)[C@H](CCCCN)NC(=O)[C@H](CCCCN)NC(=O)[C@H](Cc1ccccc1)NC(=O)[C@H](Cc1ccccc1)NC(=O)[C@@H](NC(=O)[C@@H](NC(=O)[C@H](CO)NC(=O)[C@H](CCCCN)NC(=O)[C@@H](NC(=O)[C@@H](NC(=O)[C@H](Cc1c[nH]c2ccccc12)NC(=O)[C@H](CCCCN)NC(=O)[C@H](CCCCN)NC(=O)[C@@H](NC(=O)[C@H](CCC(=O)O)NC(=O)[C@H](CCCCN)NC(=O)[C@H](CC(C)C)NC(=O)[C@@H](NC(=O)[C@H](CCCCN)NC(=O)[C@H](CCCNC(=N)N)NC(=O)[C@H](CC(C)C)NC(=O)[C@H](CC(C)C)NC(=O)[C@@H](N)CCCCN)C(C)C)[C@@H](C)O)C(C)C)[C@@H](C)CC)C(C)C)C(C)C)C(=O)N[C@@H](CCCNC(=N)N)C(=O)N[C@@H](CCCCN)C(=O)O [Hesperelin-1] (H-KLLRKVLKETKKWVIKSVVFFKKIRK-OH) | 8 | 2000 (≈ 6490 mg/mL) | – | – |
| CC[C@H](C)[C@H](NC(=O)[C@H](CO)NC(=O)[C@H](CCCNC(=N)N)NC(=O)[C@H](C)NC(=O)[C@H](Cc1c[nH]cn1)NC(=O)[C@H](CC(C)C)NC(=O)[C@H](CS)NC(=O)[C@H](C)NC(=O)[C@@H](N)CCCNC(=N)N)C(=O)N[C@@H](C)C(=O)N[C@@H](CCCNC(=N)N)C(=O)N[C@@H](CC(C)C)C(=O)N[C@@H](Cc1c[nH]cn1)C(=O)N[C@@H](CCCCN)C(=O)N[C@@H](CCCNC(=N)N)C(=O)N[C@@H](Cc1c[nH]c2ccccc12)C(=O)N[C@@H](CCCNC(=N)N)C(=O)N1CCC[C@H]1C(=O)N[C@H](C(=O)N[C@@H](Cc1c[nH]cn1)C(=O)N[C@@H](CCC(N)=O)C(=O)NCC(=O)N[C@@H](CC(C)C)C(=O)NCC(=O)N[C@@H](CC(C)C)C(=O)N[C@@H](CCCCN)C(=O)O)C(C)C [Mammuthusin-2] (H-RACLHARSIARLHKRWRPVHQGLGLK-OH) | 32 | 32000 (≈ 97900 mg/mL) | 3-4 orders of magnitude | – |
| CC(C)C[C@H](NC(=O)CNC(=O)[C@H](CCCNC(=N)N)NC(=O)[C@H](CCCCN)NC(=O)[C@H](CCCNC(=N)N)NC(=O)[C@@H](N)CCCCN)C(=O)N[C@@H](CCCCN)C(=O)N[C@@H](CC(C)C)C(=O)N[C@@H](C)C(=O)N[C@H](C(=O)N[C@@H](C)C(=O)N[C@@H](CC(C)C)C(=O)N[C@@H](CO)C(=O)N[C@@H](CC(C)C)C(=O)N[C@@H](CC(N)=O)C(=O)N[C@@H](CC(N)=O)C(=O)N[C@@H](CCCCN)C(=O)N[C@@H](Cc1ccccc1)C(=O)O)[C@@H](C)O [Mylodonin-2] (H-KRKRGLKLATALSLNNKF-OH) | 64 | 32000 (≈ 65900 mg/mL) | – | – |
| CC[C@H](C)[C@H](NC(=O)[C@H](CCCCN)NC(=O)[C@@H](NC(=O)[C@H](Cc1c[nH]c2ccccc12)NC(=O)[C@@H](N)CCCCN)[C@@H](C)O)C(=O)N[C@@H](Cc1ccc(O)cc1)C(=O)N[C@@H](CC(C)C)C(=O)N1CCC[C@H]1C(=O)N[C@@H](CC(C)C)C(=O)N[C@@H](CC(C)C)C(=O)N[C@@H](CC(C)C)C(=O)N1CCC[C@H]1C(=O)N[C@@H](CC(C)C)C(=O)O [Bisonin-2] (H-KWTKIYLPLLLPL-OH) | – | 8000 (≈ 12800 mg/mL) | – | – |
| CC[C@H](C)[C@H](N)C(=O)N[C@@H](Cc1ccccc1)C(=O)N[C@@H](CC(C)C)C(=O)N[C@@H](Cc1c[nH]cn1)C(=O)N[C@@H](CC(C)C)C(=O)N[C@@H](CCCCN)C(=O)N[C@H](C(=O)N[C@@H](CC(C)C)C(=O)N[C@@H](CCCCN)C(=O)N[C@H](C(=O)N[C@H](C(=O)N[C@@H](CCCNC(=N)N)C(=O)N[C@@H](CC(C)C)C(=O)N[C@@H](CC(C)C)C(=O)O)[C@@H](C)CC)[C@@H](C)CC)[C@@H](C)CC [Elephasin-2] (H-IFLHLKILKIIRLL-OH) | 1 | 1000 (≈ 1730 mg/mL) | 3-4 orders of magnitude | – |
| CC[C@H](C)[C@H](NC(=O)[C@H](Cc1ccccc1)NC(=O)[C@@H](N)CC(C)C)C(=O)NCC(=O)N[C@@H](CC(C)C)C(=O)N[C@H](C(=O)N[C@@H](CC(N)=O)C(=O)N[C@@H](CC(C)C)C(=O)N[C@@H](CC(C)C)C(=O)NCC(=O)N[C@@H](CC(C)C)C(=O)N[C@@H](CC(C)C)C(=O)O)[C@@H](C)O [Mammuthusin-4] (H-LFIGLTNLLGLL-OH) | – | 2000 (≈ 2570 mg/mL) | – | – |
| CC[C@H](C)[C@H](NC(=O)[C@H](CCCCN)NC(=O)[C@H](CC(N)=O)NC(=O)[C@@H](NC(=O)[C@@H](NC(=O)[C@H](Cc1c[nH]c2ccccc12)NC(=O)[C@H](CC(C)C)NC(=O)[C@H](CCC(N)=O)NC(=O)[C@H](CC(C)C)NC(=O)[C@@H](NC(=O)[C@H](C)NC(=O)[C@H](CC(C)C)NC(=O)[C@@H](N)CCCNC(=N)N)[C@@H](C)O)[C@@H](C)O)[C@@H](C)CC)C(=O)N[C@H](C(=O)N[C@@H](CCCCN)C(=O)N[C@@H](CCC(N)=O)C(=O)N[C@@H](CC(C)C)C(=O)N[C@@H](CCSC)C(=O)N[C@H](C(=O)N1CCC[C@H]1C(=O)N[C@@H](CC(C)C)C(=O)N[C@@H](CC(N)=O)C(=O)N[C@@H](CCCCN)C(=O)N1CCC[C@H]1C(=O)NCC(=O)N[C@@H](Cc1c[nH]cn1)C(=O)N[C@@H](CCCCN)C(=O)O)[C@@H](C)CC)[C@@H](C)O [Ararin-2] (H-RLATLQLWTINKITKQLMIPLNKPGHK-OH) | – | 16000 (≈ 50500 mg/mL) | – | – |
| polymyxin B [reference compound] | – | – | – | 4-5 orders of magnitude |
| CC[C@H](C)[C@H](NC(=O)[C@H](CCCCN)NC(=O)[C@@H](NC(=O)[C@H](Cc1c[nH]c2ccccc12)NC(=O)[C@H](CCCCN)NC(=O)[C@@H](N)CCCCN)[C@@H](C)O)C(=O)N[C@@H](Cc1ccc(O)cc1)C(=O)N[C@@H](CO)C(=O)N1CCC[C@H]1C(=O)N[C@@H](CC(C)C)C(=O)N[C@@H](CO)C(=O)N[C@@H](CC(C)C)C(=O)O [Smilodin-1] (H-KKWTKIYSPLSL-OH) | – | 64000 (≈ 93700 mg/mL) | – | – |
| CC[C@H](C)[C@H](NC(=O)[C@H](Cc1ccccc1)NC(=O)[C@H](CC(N)=O)NC(=O)[C@@H](NC(=O)[C@@H](NC(=O)[C@H](Cc1c[nH]cn1)NC(=O)[C@@H](N)CC(C)C)[C@@H](C)O)[C@@H](C)CC)C(=O)N[C@H](C(=O)N[C@@H](CCCCN)C(=O)N[C@@H](CO)C(=O)N[C@@H](CC(C)C)C(=O)N[C@@H](CC(C)C)C(=O)N[C@@H](CC(C)C)C(=O)O)[C@@H](C)CC [Bisonin-1] (H-LHTINFIIKSLLL-OH) | – | 16000 (≈ 24400 mg/mL) | – | – |
| CC[C@H](C)[C@H](NC(=O)[C@@H](N)CC(C)C)C(=O)N[C@H](C(=O)N[C@@H](CS)C(=O)N[C@@H](Cc1ccccc1)C(=O)N[C@@H](Cc1ccccc1)C(=O)N[C@@H](CCCNC(=N)N)C(=O)N[C@@H](CCC(N)=O)C(=O)N[C@@H](CC(C)C)C(=O)N[C@@H](CCCCN)C(=O)N[C@@H](Cc1ccccc1)C(=O)N[C@@H](Cc1c[nH]cn1)C(=O)N[C@@H](Cc1ccccc1)C(=O)O)C(C)C [Megalocerin-1] (H-LIVCFFRQLKFHF-OH) | 8 | 8000 (≈ 13600 mg/mL) | – | – |
